# According to US7709507B2 (Allergan, Inc., priority 2006, dated 2010):
# pEC50: −log10 of the molar value. Like-named read-outs stand apart in the source and are kept apart here.
# Experiments:
# Type in all cases: cell-based
# alpha2A receptor = molecular target: T1, alpha2A receptor (Homo sapiens, UniProt P08913); assay: Receptor Selection and Amplification Technology (RSAT) assay, Alpha 2A; details: for Alpha 2A IA (intrinsic activity): ratio of maximal effect to that of standard full agonist brimonidine (UK14304)
# T1 construct: expressed in transfected cells; host or cells: NIH-3T3 cells
# T1 sequence (P08913 1-465): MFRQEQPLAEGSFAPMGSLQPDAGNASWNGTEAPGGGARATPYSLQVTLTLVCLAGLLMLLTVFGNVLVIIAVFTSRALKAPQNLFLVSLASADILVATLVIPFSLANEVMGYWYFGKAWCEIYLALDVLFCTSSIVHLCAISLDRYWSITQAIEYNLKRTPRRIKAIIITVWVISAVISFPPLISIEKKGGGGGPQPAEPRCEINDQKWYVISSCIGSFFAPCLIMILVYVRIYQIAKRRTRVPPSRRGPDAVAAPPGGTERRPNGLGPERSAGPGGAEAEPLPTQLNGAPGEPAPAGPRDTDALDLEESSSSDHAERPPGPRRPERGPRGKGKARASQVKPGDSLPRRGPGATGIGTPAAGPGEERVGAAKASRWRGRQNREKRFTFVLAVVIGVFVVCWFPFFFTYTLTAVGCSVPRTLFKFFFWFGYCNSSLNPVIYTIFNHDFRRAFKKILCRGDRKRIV
# Procedure: (§1) Receptor Selection and Amplification Technology (RSAT) Assay
# (§2) The RSAT assay measures a receptor-mediated loss of contact inhibition that results in selective proliferation of receptor-containing cells in a mixed population of confluent cells. The increase in cell number is assessed with an appropriate transfected marker gene such as β-galactosidase, the activity of which can be easily measured in a 96-well format. Receptors that activate the G protein, Gq, elicit this response. Alpha2 receptors, which normally couple to Gi, activate the RSAT response when coexpressed with a hybrid Gq protein that has a Gi receptor recognition domain, called Gq/i5.
# (§3) NIH-3T3 cells are plated at a density of 2×10^6 cells in 15 cm dishes and maintained in Dulbecco's modified Eagle's medium supplemented with 10% calf serum. One day later, cells are cotransfected by calcium phosphate precipitation with mammalian expression plasmids encoding p-SV-β-galactosidase (5-10 μg), receptor (1-2 μg) and G protein (1-2 μg). 40 μg salmon sperm DNA may also be included in the transfection mixture. […] Cells are thawed and 100 μl added to 100 μl aliquots of various concentrations of drugs in triplicate in 96-well dishes. Incubations continue 72-96 hr at 37° C. After washing with phosphate-buffered saline, β-galactosidase enzyme activity is determined by adding 200 μl of the chromogenic substrate (consisting of 3.5 mM o-nitrophenyl-β-D-galactopyranoside and 0.5% nonidet P-40 in phosphate buffered saline), incubating overnight at 30° C. and measuring optical density at 420 nm. The absorbance is a measure of enzyme activity, which depends on cell number and reflects a receptor-mediated cell proliferation. The efficacy or intrinsic activity is calculated as a ratio of the maximal effect of the drug to the maximal effect of a standard full agonist for each receptor subtype. Brimonidine, also called UK14304, the chemical structure of which is shown below, is used as the standard agonist for the alpha2A, alpha2B and alpha2C receptors. The EC50 is the concentration at which the drug effect is half of its maximal effect.
# (§4) EC50 values are nanomolar. NA stands for “not active” at concentrations less than 10 micromolar. IA stands for “intrinsic activity.”
# alpha2B receptor = molecular target: T2, alpha2B receptor (Homo sapiens, UniProt P18089); assay: Receptor Selection and Amplification Technology (RSAT) assay, Alpha 2B; details: for pEC50: transfected NIH-3T3 cells with Gq/i5, not active = at concentrations less than 10 micromolar; for Alpha 2B IA (intrinsic activity): ratio of maximal effect to that of standard full agonist brimonidine (UK14304)
# T2 construct: expressed in transfected cells; host or cells: NIH-3T3 cells
# T2 sequence (P18089 1-450): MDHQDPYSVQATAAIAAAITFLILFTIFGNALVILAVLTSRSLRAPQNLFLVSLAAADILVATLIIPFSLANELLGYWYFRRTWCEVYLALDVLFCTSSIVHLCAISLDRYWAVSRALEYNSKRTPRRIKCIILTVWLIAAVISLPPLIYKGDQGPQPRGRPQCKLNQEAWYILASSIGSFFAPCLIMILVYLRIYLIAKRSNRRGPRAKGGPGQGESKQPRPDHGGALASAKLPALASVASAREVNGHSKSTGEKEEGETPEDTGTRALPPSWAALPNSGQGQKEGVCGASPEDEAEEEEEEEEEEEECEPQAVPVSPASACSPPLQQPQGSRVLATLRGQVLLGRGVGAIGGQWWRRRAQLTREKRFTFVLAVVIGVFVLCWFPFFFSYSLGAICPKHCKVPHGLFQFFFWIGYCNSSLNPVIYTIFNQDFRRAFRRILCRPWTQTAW
# Procedure: as §1, §2
# NIH-3T3 cells are plated at a density of 2×10^6 cells in 15 cm dishes and maintained in Dulbecco's modified Eagle's medium supplemented with 10% calf serum. One day later, cells are cotransfected by calcium phosphate precipitation with mammalian expression plasmids encoding p-SV-β-galactosidase (5-10 μg), receptor (1-2 μg) and G protein (1-2 μg). 40 μg salmon sperm DNA may also be included in the transfection mixture. Fresh media is added on the following day and 1-2 days later, cells are harvested and frozen in 50 assay aliquots. Cells are thawed and 100 μl added to 100 μl aliquots of various concentrations of drugs in triplicate in 96-well dishes. Incubations continue 72-96 hr at 37° C. After washing with phosphate-buffered saline, β-galactosidase enzyme activity is determined by adding 200 μl of the chromogenic substrate (consisting of 3.5 mM o-nitrophenyl-β-D-galactopyranoside and 0.5% nonidet P-40 in phosphate buffered saline), incubating overnight at 30° C. and measuring optical density at 420 nm. The absorbance is a measure of enzyme activity, which depends on cell number and reflects a receptor-mediated cell proliferation. The efficacy or intrinsic activity is calculated as a ratio of the maximal effect of the drug to the maximal effect of a standard full agonist for each receptor subtype. Brimonidine, also called UK14304, the chemical structure of which is shown below, is used as the standard agonist for the alpha2A, alpha2B and alpha2C receptors. The EC50 is the concentration at which the drug effect is half of its maximal effect.
# The results of the RSAT assay with several exemplary compounds of the invention are disclosed in Table 1 above together with the chemical formulas of these exemplary compounds. EC50 values are nanomolar. NA stands for “not active” at concentrations less than 10 micromolar. IA stands for “intrinsic activity.”
# alpha2C receptor = molecular target: T3, alpha2C receptor (Homo sapiens, UniProt P18825); assay: Receptor Selection and Amplification Technology (RSAT) assay, Alpha 2C; details: for Alpha 2C IA (intrinsic activity): ratio of maximal effect to that of standard full agonist brimonidine (UK14304)
# T3 construct: expressed in transfected cells; host or cells: NIH-3T3 cells
# T3 sequence (P18825 1-462): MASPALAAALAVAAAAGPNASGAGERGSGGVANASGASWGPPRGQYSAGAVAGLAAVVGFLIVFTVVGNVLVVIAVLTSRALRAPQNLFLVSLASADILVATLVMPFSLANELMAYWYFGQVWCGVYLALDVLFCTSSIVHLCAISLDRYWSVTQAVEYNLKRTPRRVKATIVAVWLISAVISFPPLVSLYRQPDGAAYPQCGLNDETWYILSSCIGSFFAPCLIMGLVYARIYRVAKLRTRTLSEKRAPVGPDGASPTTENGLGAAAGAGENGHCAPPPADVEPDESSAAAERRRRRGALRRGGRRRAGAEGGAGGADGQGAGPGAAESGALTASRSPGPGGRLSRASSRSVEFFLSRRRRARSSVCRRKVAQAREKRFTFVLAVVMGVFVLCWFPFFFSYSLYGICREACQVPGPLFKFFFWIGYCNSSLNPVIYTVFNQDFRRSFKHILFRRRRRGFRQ
# Procedure: as §1, §2, §3, §4
# [1] = RSAT, transfected NIH-3T3 cells with Gq/i5, not active = at concentrations less than 10 micromolar
# [2] = RSAT, transfected NIH-3T3 cells with Gq/i5, not active = at concentrations less than 10 micromolar, read-out: Alpha 2C EC50
SMILES,Alpha 2A EC50 (alpha2A receptor; [1]),"pEC50 (alpha2B receptor; RSAT, read-out: Alpha 2B EC50)",Alpha 2B IA (intrinsic activity) (alpha2B receptor),Alpha 2C EC50 (alpha2C receptor; [1]),"pEC50 (alpha2A receptor; RSAT, transfected NIH-3T3 cells with Gq/i5, not active = at concentrations less than 10 micromolar, read-out: Alpha 2A EC50)",Alpha 2A IA (intrinsic activity) (alpha2A receptor),pEC50 (alpha2C receptor; [2]),Alpha 2C IA (intrinsic activity) (alpha2C receptor),"pEC50 (alpha2B receptor; Alpha 2B EC50, RSAT)",pEC50 (alpha2C receptor),pEC50 (alpha2A receptor)
O=C(NCCF)NC(Cc1ccccc1)c1ccccc1F (stereo not drawn),,6.99,0.79,,5.67,0.35,7.00,0.31,,,
O=C(NCCF)NC(Cc1ccccc1)c1ccc(F)cc1 (stereo not drawn),not active,6.52,0.71,not active,,,,,,,
Cc1ccccc1CC(NC(=O)NCCF)c1cccc(Cl)c1 (stereo not drawn),not active,7.57,0.94,,,,6.10,0.38,,,
"O=C(NCCF)NC(Cc1ccccc1)c1ccccc1 (stereo not drawn) [1-(1,2-diphenyl-ethyl)-3-(2-fluoro-ethyl)-urea]",not active,,0.96,,,,,0.32,7.47,6.46,
Cc1cccc(C(Cc2cccnc2)NC(=O)NCCF)c1 (stereo not drawn) [1-(2-fluoro-ethyl)-3-(2-pyridin-3-yl-1-m-tolyl-ethyl)-urea],not active,7.27,0.95,not active,,,,,,,
Cc1cccc(C(Cc2ccncc2)NC(=O)NCCF)c1 (stereo not drawn) [1-(2-fluoro-ethyl)-3-(2-pyridin-4-yl-1-m-tolyl-ethyl)-urea],,,1.1,not active,,0.44,,,7.42,,6.47
Cc1cccc(C(Cc2cccs2)NC(=O)NCCF)c1 (stereo not drawn) [1-(2-fluoro-ethyl)-3-(2-thiophen-2-yl-1-m-tolyl-ethyl)-urea],not active,7.43,1.08,not active,,,,,,,
O=C(NCCF)NC(Cc1ccccc1F)c1cccnc1 (stereo not drawn) [1-(2-fluoro-ethyl)-3-[2-(2-fluoro-phenyl)-1-pyridin-3-yl-ethyl]-urea],not active,6.13,0.78,not active,,,,,,,
O=C(NCCF)NC(Cc1ccccc1F)c1ccncc1 (stereo not drawn) [1-(2-fluoro-ethyl)-3-[2-(2-fluoro-phenyl)-1-pyridin-4-yl-ethyl]-urea],not active,5.67,0.53,not active,,,,,,,

# More lines, main results first:
Alpha 2A EC50 (alpha2A receptor; [1]),"pEC50 (alpha2B receptor; RSAT, read-out: Alpha 2B EC50)",Alpha 2B IA (intrinsic activity) (alpha2B receptor),Alpha 2C EC50 (alpha2C receptor; [1]),SMILES,"pEC50 (alpha2A receptor; RSAT, transfected NIH-3T3 cells with Gq/i5, not active = at concentrations less than 10 micromolar, read-out: Alpha 2A EC50)",Alpha 2A IA (intrinsic activity) (alpha2A receptor),pEC50 (alpha2C receptor; [2]),Alpha 2C IA (intrinsic activity) (alpha2C receptor),"pEC50 (alpha2B receptor; Alpha 2B EC50, RSAT)",pEC50 (alpha2C receptor),pEC50 (alpha2A receptor)
not active,6.22,0.63,not active,O=C(NCCF)NC(Cc1ccccc1Cl)c1ccccc1 (stereo not drawn),,,,,,,
not active,6.75,0.55,not active,O=C(NCCF)NC(Cc1ccccc1)c1ccc(Cl)cc1 (stereo not drawn),,,,,,,
not active,7.86,1.02,not active,Cc1cccc(C(Cc2ccccc2F)NC(=O)NCCF)c1 (stereo not drawn),,,,,,,
not active,7.37,0.88,not active,Cc1cccc(C(Cc2ccc(F)cc2)NC(=O)NCCF)c1 (stereo not drawn),,,,,,,
not active,6.84,0.82,not active,O=C(NCCF)NC(Cc1ccccc1)c1ccc(O)cc1 (stereo not drawn),,,,,,,
not active,6.19,0.33,not active,O=C(NCCF)NC(Cc1ccccc1)C1CCCCC1 (stereo not drawn) [1-(1-cyclohexyl-2-phenylethyl)-3-(2-fluoroethyl)urea],,,,,,,
not active,6.42,0.6,not active,O=C(NCCF)NC(Cc1ccccc1)C1CCCC1 (stereo not drawn) [1-(1-cyclopentyl-2-phenylethyl)-3-(2-fluoroethyl)urea],,,,,,,
not active,7.20,1.0,not active,Cc1cccc(C(Cc2ccsc2)NC(=O)NCCF)c1 (stereo not drawn) [1-(2-Fluoro-ethyl)-3-(2-thiophen-3-yl-1-m-tolyl-ethyl)-urea],,,,,,,
not active,6.29,0.77,not active,O=C(NCCF)NC(Cc1ccccc1)c1ccco1 (stereo not drawn) [1-(2-fluoro-ethyl)-3-(1-furan-2-yl-2-phenyl-ethyl)-urea],,,,,,,
not active,6.87,0.87,not active,Cc1cccc(C(Cc2ccccn2)NC(=O)NCCF)c1 (stereo not drawn) [1-(2-fluoro-ethyl)-3-(2-pyridin-2-yl-1-m-tolyl-ethyl)-urea],,,,,,,
